Results taken from paper PMC10223284, “Category-Based Toxicokinetic Evaluations of Data-Poor Per- and Polyfluoroalkyl Substances (PFAS) using Gas Chromatography Coupled with Mass Spectrometry” (Toxics, 2023).
Where “and” joins values, the source holds several entries; their conditions need not be identical. Equal values may be shown once.

Legend:
human plasma [1] = assay: Ultracentrifugation (UC) plasma protein binding assay, fraction unbound in plasma (fup); settings: for Aqueous Fraction / Aqueous Fraction, Run-specific Avg: amount measured in aqueous fraction after ultracentrifugation, unit not given; for Aqueous Fraction: replicates A, B, C; for Aqueous Fraction, Run-specific Avg: run average; for Mean fu: fraction unbound in human plasma, ultracentrifugation, some values based on eLOQ; for Fup.Med: median fraction unbound in plasma; for Fup.Med / Fup.point: UC assay Level4; for Fup.point: point estimate of fraction unbound in plasma; for Fraction Unbound (fu), replicates A, B, C: single replicate of one UC run (aqueous fraction / Time 5 hr)
[2] = Abiotic loss in negative controls of the hepatocyte clearance assay (cell-free media, metabolically inactivated hepatocytes); format: in vitro ADME; settings: flag for stability failure in hepatocyte clearance assay controls (1 or Fst = fail, 0 = pass)
Method: The hepatic metabolic stability assay measures the loss of a parent compound over time in a substrate-depletion approach. Briefly, hepatocyte suspensions, after a viability assessment, were diluted in complete William’s medium E (containing dexamethasone and cell maintenance cocktail B) prior to addition to 96-well polypropylene plates containing an equal volume of media spiked with the test compound (1 μM assay concentration; assay cell density = 50,000 cells/100 μL) and maintained at 37 °C with shaking. At each time point, relevant plates were crashed with an equal volume of ice-cold acetonitrile, centrifuged, and supernatant transferred to a new plate prior to storage at <−70 °C until quantitative analysis. Controls, run in parallel, included cell-free (i.e., media only) and metabolically inactivated hepatocytes to evaluate abiotic chemical stability in the aqueous media matrix with and without cellular protein. In preliminary runs, these controls were run at T0 and T240 only. If significant instability was noted, the hepatocyte clearance assay was rerun, including cell-free samples at each time point and metabolically inactivated hepatocytes at selected time points.
Negative controls, including media only and metabolically inactivated hepatocyte controls, were included to monitor abiotic loss (i.e., background clearance) during the assay. Where significant compound loss occurred using the analysis described above, background clearance rates were calculated and used to background-adjust hepatic metabolic clearance rates. Where chemicals were cleared prior to the end of the analysis, at 240 min (T240), the corresponding negative control timepoint was used for background subtraction. Any chemicals displaying a 50% or more abiotic loss at T120 were deemed unstable and were excluded from further analyses.

human plasma [3] = assay: Chemical stability in plasma over the UC assay time course (T5hr/T1hr); settings: for Time 1 hr / Time 1 hr, Run-specific Avg: amount measured in plasma sample at 1 hr; for Time 1 hr / Time 5 hr: replicates A, B, C; for Time 1 hr / Time 1 hr, Run-specific Avg / Time 5 hr / Time 5 hr, Run-specific Avg: unit not given; for Time 1 hr, Run-specific Avg / Time 5 hr, Run-specific Avg: run average; for Time 5 hr / Time 5 hr, Run-specific Avg: amount measured in plasma sample at 5 hr; for % remaining_PPB: chemical remaining in plasma over the PPB assay time course, NS = no significant loss; for PPB_Stab_Fail: flag for stability failure in the plasma protein binding assay (1 = fail, 0 = pass); for Fstable.Med: median fraction stable in plasma, UC assay Level4; for Stability (T5hr/ T1hr), replicates A, B, C: single replicate of one UC run
[4] = mean T5hr/T1hr ratio in plasma over all replicates/runs
[5] = average of one UC run (run date in line above)
[6] = mean T5hr/T1hr ratio over all replicates and runs, plasma
[7] = mean fraction unbound over all replicates and runs, UC assay, human plasma

SMILES	Aqueous Fraction (human plasma [1])	Aqueous Fraction, Run-specific Avg (human plasma [1])	Mean fu (human plasma [1])	Fup.Med (human plasma [1])	Fup.point (human plasma [1])	Hep_Stab_Fail [2]	Time 1 hr (human plasma [3])	Time 1 hr, Run-specific Avg (human plasma [3])	Time 5 hr (human plasma [3])	Time 5 hr, Run-specific Avg (human plasma [3])	Stability (T5hr/ T1hr), Run-specific Avg (human plasma [3]; average of one UC run)	% remaining_PPB (human plasma [3]) [%]	PPB_Stab_Fail (human plasma [3])	Mean Stability (human plasma [3]; [4])	Fstable.Med (human plasma [3])	Stability (T5hr/ T1hr), Run-specific Avg (human plasma [3]; [5])	Mean Stability (human plasma [3]; [6])	Stability (T5hr/ T1hr), replicates A, B, C (human plasma [3])	Fraction Unbound (fu), replicates A, B, C (human plasma [1])	further results
OCC(F)(F)C(F)(F)C(F)(F)C(F)(F)C(F)(F)C(F)(F)C(F)(F)C(F)(F)C(F)(F)C(F)(F)C(F)(F)F [11:1 Fluorotelomer alcohol]	595.593 and 1494.34 and 453.605	847.84	0.0570	0.0578	0.0621	1	16624.1 and 16003.4 and 18170.7	16932.71	8697.13 and 19831.5 and 16897.3	14264.32	0.842	100	0	0.909	0.341	–	–	–	–	Fraction Unbound (fu), Run-specific Avg (human plasma [1]; average of one UC run): 0.0569
N=C(N)C(F)(F)C(F)(F)C(F)(F)C(F)(F)C(F)(F)C(F)(F)C(F)(F)F [Perfluorooctanamidine]	–	–	0.0253	4.95E-09	0.0261	1	–	–	–	–	–	67	0	–	0.0291	0.890	0.892	0.858 and 0.887 and 0.929	–	–
OCCCCC(F)(F)C(F)(F)C(F)(F)C(F)(F)F [4:4 Fluorotelomer alcohol]	460.145 and 470.255 and 706.065	545.49	0.0640	0.0608	0.0704	1	11379.4 and 9453.92 and 9594.35	10142.56	9012.64 and 8012.91 and 8571.88	8512.77	0.839	100	0	0.850	0.181	–	–	–	–	Fraction Unbound (fu), Run-specific Avg (human plasma [1]; average of one UC run): 0.064
C=CC(=O)OCC(F)(F)C(F)(F)C(F)(F)COC(=O)C=C [1H,1H,5H,5H-Perfluoro-1,5-pentanediol diacrylate]	–	–	–	7.62E-09	0.177	1	–	–	–	–	–	0	1	–	0.00466	–	–	–	–	–
FC(F)(F)C(F)(F)C(F)(F)C(F)(F)CCI [1H,1H,2H,2H-Perfluorohexyl iodide]	429.404 and 197.254 and 248.159	291.61	0.0980	0.0824	0.0905	1	4814.29 and 5234.67 and 5102.52	5050.49	2541.5 and 2572.68 and 2719.11	2557.09	0.506	–	0	0.517	0.99	0.871	0.928	1.126 and 0.894 and 0.765	0.08012 and 0.1098 and 0.1042	Fraction Unbound (fu), Run-specific Avg (human plasma [1]; [5]): 0.10
FC(F)(F)COC(OCC(F)(F)F)OCC(F)(F)F [tris(Trifluoroethoxy)methane]	–	–	0.1728	0.132	0.0994	1	–	–	–	–	–	66	0	–	0.362	0.660	0.662	0.6799 and 0.6407 and 0.6662	0.186 and 0.1626 and 0.1699	Fraction Unbound (fu), Run-specific Avg (human plasma [1]; [5]): 0.17; Mean Fu (human plasma [1]; [7]): 0.173
C=CC(=O)OCC(F)(F)C(F)(F)C(F)(F)C(F)(F)C(F)(F)C(F)(F)C(F)(F)C(F)F [1H,1H,9H-Perfluorononyl acrylate]	–	–	–	2.02E-08	0.315	1	–	–	–	–	–	0	1	–	0.000116	–	–	–	–	–
CN(C(=O)C(F)(F)C(F)(F)C(F)(F)F)[Si](C)(C)C [N-Methyl-N-trimethylsilylheptafluorobutyramide]	–	–	0.5451	0.532	0.545	1	–	–	–	–	–	–	0	–	0.274	0.935	0.935	0.978 and 0.906 and 0.921	0.507 and 0.525 and 0.603	Fraction Unbound (fu), Run-specific Avg (human plasma [1]; [5]): 0.55; Mean Fu (human plasma [1]; [7]): 0.545
OCC(F)(F)C(F)(F)C(F)(F)C(F)(F)C(F)(F)C(F)F	–	–	0.0537	0.0526	0.0549	1	–	–	–	–	–	–	0	–	0.222	0.870	0.875	0.819 and 1.002 and 0.803	0.052 and 0.046 and 0.064	Mean Fu (human plasma [1]; [7]): 0.054
FC(F)(F)C(F)(F)C(F)(F)C(F)(F)C(F)(F)C(F)(F)C(F)(F)CCI [1-Iodo-1H,1H,2H,2H-perfluorononane]	–	–	0.1123	0.108	0.112	Fst	–	–	–	–	–	51.7	0	–	0.358	–	–	–	–	–
NCC(F)(F)C(F)(F)C(F)(F)C(F)(F)C(F)(F)C(F)(F)C(F)(F)F [1H,1H-Perfluorooctylamine]	245.64 and 173.583 and 303.476	240.90	0.105	0.605	0.345	Fst	5598.62 and 5535.59 and 4647.69	5260.63	3087.52 and 3094.29 and 2839.44	3090.91	0.588	58	0	0.577	0.0977	–	–	–	–	Fraction Unbound (fu), Run-specific Avg (human plasma [1]; average of one UC run): 0.08; Mean Fu (human plasma [1]; mean fraction unbound in human plasma over all UC replicates/runs): 0.081
